A short description of data set [1]: Pharmacokinetics and bioavailability in male mice after a single dose. Type of data set: in vivo.
The next data set concerns the target ALK2 (ACVR1) (Homo sapiens (Human), UniProt Q04771). As to the kind of experiment: In vitro kinase assay (33P ATP), ALK2. Particulars: 10 μM ATP; read-out: Inhibition of ALK2 (IC50 μM). The data set is classed as biochemical.
The test system of the next data set is p-SMAD2. The data set can be described thus: p-SMAD2 inhibition, Western Blot Analysis in MDA-MB-231 cells treated with TGFβ. Type of data set: cell-based. To be noted: Homo sapiens, TGFβ 2 ng/mL, samples run in triplicate; for inhibition at 0.1 µM: 0.1 μM compound, read-out: Average p-SMAD2 inhibition @ 0.1 μM (% Inh); for inhibition at 0.5 µM: 0.5 μM compound, read-out: Average p-SMAD2 inhibition @ 0.5 μM (% Inh). (In general: In western blotting, separated proteins are transferred to a membrane and probed.)

Data set [2] can be described thus: Plasma and brain concentrations at 0.5 and 1 h. The data set is classed as in vivo, mice. To be noted: PO.

The structures appear in SMILES notation.

In general, IC50 refers to the concentration that gives 50% inhibition. In general, inhibition refers to the relative decrease from the control value, in per cent.

ALK2 (ACVR1), sequence (Q04771 21-509): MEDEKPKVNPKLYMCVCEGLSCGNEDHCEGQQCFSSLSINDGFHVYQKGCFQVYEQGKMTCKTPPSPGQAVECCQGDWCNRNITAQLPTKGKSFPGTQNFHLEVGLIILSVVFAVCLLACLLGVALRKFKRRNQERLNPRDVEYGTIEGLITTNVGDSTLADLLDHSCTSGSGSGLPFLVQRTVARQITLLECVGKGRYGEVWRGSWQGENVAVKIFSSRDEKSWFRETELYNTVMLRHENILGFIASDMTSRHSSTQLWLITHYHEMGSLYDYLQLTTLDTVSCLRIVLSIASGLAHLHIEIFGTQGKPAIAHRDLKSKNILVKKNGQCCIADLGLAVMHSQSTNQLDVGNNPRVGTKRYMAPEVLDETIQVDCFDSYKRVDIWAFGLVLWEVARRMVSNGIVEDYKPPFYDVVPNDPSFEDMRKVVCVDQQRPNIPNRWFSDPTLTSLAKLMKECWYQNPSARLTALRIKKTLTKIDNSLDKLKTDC

In data set [1] (Intravenous, 2 mg/kg), `C=C(C)c1cnc(-c2cc(Cl)ccc2F)cc1Nc1ccncc1C(=O)NCC(C)O` (single isomer, unassigned) [Compound 3a] returned an AUClast of 2.56 µM·h and a CL of 12.8 mL/min/kg. The same compound displayed an AUClast in data set [1] (Oral, 10 mg/kg) of 10.5 µM·h.
On to `COc1cnc(-c2cc(Cl)ccc2F)cc1Nc1ccncc1C(=O)NCC(C)O` (single isomer, unassigned) [Compound 13a], for which, on ALK2 (ACVR1), the IC50 was greater than 100 µM.
As for `CC(C)c1cnc(-c2cc(Cl)ccc2F)cc1Nc1n[nH]cc1C(=O)NC[C@H](C)O` (single isomer, unassigned) [Compound 21a, 3-[[2-(5-chloro-2-fluoro-phenyl)-5-isopropyl-4-pyridyl]amino]-N-(2-hydroxypropyl)-1H-pyrazole-4-carboxamide], in the data set on p-SMAD2, the inhibition at 0.1 µM was found to be 4.67% and the inhibition at 0.5 µM came to 7.67%.
As for `C=C(C)c1c(Nc2ccncc2C(=O)NCC(C)O)cc(-c2cc(Cl)ccc2F)nc1N` (single isomer, unassigned) [Compound 23a], the AUClast in data set [1] (Intravenous, 2 mg/kg) came out at 1.11 µM·h; in data set [1] (Oral, 10 mg/kg), 0.907 µM·h. The compound also displayed a CL in data set [1] (Intravenous, 2 mg/kg) of 66 mL/min/kg.
Regarding `CC(C)c1cnc(-c2cc(Cl)ccc2F)cc1Nc1ccncc1CNC[C@H](C)O` [Compound 5a, (S)-1-((4-(2-(5-chloro-2-fluorophenyl)-5-isopropylpyridin-4-ylamino)pyridin-3-yl)methylamino)propan-2-ol], in the data set on p-SMAD2, the inhibition at 0.1 µM came to 14.3% and the inhibition at 0.5 µM amounted to 41.3%.
Regarding `C=C(C)c1cnc(-c2cc(Cl)ccc2F)cc1Nc1ccncc1C(=O)N[C@H](C)CO` [Compound 7b, (2R)-4-[[2-(5-chloro-2-fluoro-phenyl)-5-isopropenyl-4-pyridyl]amino]-N-(2-hydroxy-1-methyl-ethyl)pyridine-3-carboxamide], the IC50 on ALK2 (ACVR1) was greater than 100 µM.
Turning to `C=Cc1cnc(-c2cc(Cl)ccc2F)cc1Nc1ccncc1C(=O)NC[C@H](C)O` [Compound 10a, (S)-4-(2-(5-chloro-2-fluorophenyl)-5-vinylpyridin-4-ylamino)-N-(2-hydroxypropyl) nicotinamide], the inhibition at 0.5 µM with p-SMAD2 stood at 64.3%.
For the compound `CC(C)c1cnc(-c2cc(Cl)ccc2F)cc1Nc1ccncc1C(=O)NCCN` [Compound 19, N-(2-aminoethyl)-4-[[2-(5-chloro-2-fluoro-phenyl)-5-isopropyl-4-pyridyl]amino]pyridine-3-carboxamide], the “Brain Concentration (μM)” value in data set [2] (0.5 h) and in data set [2] (1 h) was “BLQ” in each case.
On to `C=C(C)c1cnc(-c2cc(Cl)ccc2F)cc1Nc1n[nH]cc1C(=O)NC[C@H](C)O` [Compound 20a, (S)-3-[[2-(5-chloro-2-fluoro-phenyl)-5-isopropenyl-4-pyridyl]amino]-N-(2-hydroxypropyl)-1H-pyrazole-4-carboxamide], for which, in the data set on p-SMAD2, the inhibition at 0.1 µM was found to be 0% and the inhibition at 0.5 µM is 3.67%.
